Columns and labels:
CDK6/cyclin D3 = target: T1, CDK6/cyclin D3 (Homo sapiens, UniProt Q00534); assay: CDK6/cyclin D3 kinase activity, mobility shift assay; type: biochemical
T1 construct: purchased Carna 04-107
Experimental: (§1) In vitro CDK kinase activity was tested using a mobility shift assay.
(§2) The IC50 values of the compounds were obtained by fitting using XLFit excel add-in version 5.4.0.8. Fitting formula:
(§3) Y=Bottom+(Top−Bottom)/(1+10^((Log IC50−X)×Hill Slope)). • X: the log value of the compound concentration; Y: the percent inhibition of the compound.

CDK4/cyclin D1 = target: T2, CDK4/cyclin D1 (Homo sapiens, UniProt P11802); assay: CDK4/cyclin D1 kinase activity, mobility shift assay; type: biochemical
T2 construct: purchased ProQinase 0142-0143-1
T2 sequence (P11802 whole entry): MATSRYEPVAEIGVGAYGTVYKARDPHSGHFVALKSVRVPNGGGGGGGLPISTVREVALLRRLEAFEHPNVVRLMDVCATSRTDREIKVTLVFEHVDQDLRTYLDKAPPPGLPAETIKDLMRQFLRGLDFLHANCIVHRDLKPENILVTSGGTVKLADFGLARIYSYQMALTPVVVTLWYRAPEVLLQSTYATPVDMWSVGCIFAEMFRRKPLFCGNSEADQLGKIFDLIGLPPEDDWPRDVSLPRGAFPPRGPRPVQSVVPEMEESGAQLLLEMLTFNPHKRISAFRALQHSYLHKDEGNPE
T2 sequence (P24385 whole entry partner): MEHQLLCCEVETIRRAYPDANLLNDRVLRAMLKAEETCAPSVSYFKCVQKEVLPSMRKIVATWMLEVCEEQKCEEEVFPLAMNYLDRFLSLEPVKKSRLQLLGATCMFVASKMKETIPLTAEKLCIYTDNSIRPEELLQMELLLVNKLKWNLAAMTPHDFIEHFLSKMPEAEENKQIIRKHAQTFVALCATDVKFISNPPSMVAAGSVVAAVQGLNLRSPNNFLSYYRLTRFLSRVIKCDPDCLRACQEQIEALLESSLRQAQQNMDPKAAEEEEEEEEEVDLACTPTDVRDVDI
Experimental: as §1, §2, §3

human PXR = target: T3, human PXR (Homo sapiens, UniProt O75469); assay: PXR induction assay in DPX2 cells (luciferase reporter); type: cell-based
T3 construct: host or cells: DPX2 (HepG2)
T3 sequence (O75469 1-434): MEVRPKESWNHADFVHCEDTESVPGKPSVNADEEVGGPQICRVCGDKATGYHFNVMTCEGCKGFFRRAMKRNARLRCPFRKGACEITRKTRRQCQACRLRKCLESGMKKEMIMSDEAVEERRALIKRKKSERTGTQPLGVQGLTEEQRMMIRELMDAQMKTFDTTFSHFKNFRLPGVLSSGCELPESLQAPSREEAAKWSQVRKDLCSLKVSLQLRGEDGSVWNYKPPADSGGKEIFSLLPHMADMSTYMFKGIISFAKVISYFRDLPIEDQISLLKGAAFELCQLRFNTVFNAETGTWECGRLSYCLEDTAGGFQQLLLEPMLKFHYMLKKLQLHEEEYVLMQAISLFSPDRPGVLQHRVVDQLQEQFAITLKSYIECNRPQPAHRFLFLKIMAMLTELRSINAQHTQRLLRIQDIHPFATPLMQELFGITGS
Experimental: 1. The potential of the test compounds to induce the activity of drug metabolism enzymes by in vitro activating PXR was evaluated.
1) DPX2 (HepG2 cells were stably transfected with the human PXR gene and the fluorescent reporter gene) cells were purchased from Puracyp (Carlsbad, CA).
When covering 80-90% of the bottom of the culture flask, the cells were digested.
4) The cell suspension was transferred to a conical-bottomed centrifuge tube and centrifuged at 120 g for 10 min. The cells were suspended in the plating medium and adjusted to a concentration of 4×10^5 cells/mL. 100 μL of diluted cells were added to each well of a 96-well cell culture plate. The culture plate was placed in an incubator and incubated at 37° C. for 24 h before PXR activation assays.
The final concentration of DMSO was 0.1%. To 1 mL of pre-incubated medium, 1 μL of DMSO was added as a solvent control.
2) The cell culture plate was removed from the incubator, and the medium was discarded. 100 μL of each of the test compounds and positive compound was added to an appropriate well in duplicate, and the cell plate was placed in an incubator and incubated for 24 h.
1) After […] of drug treatment, quantification of PXR activation could be performed on the culture.
2) The CellTiter-Fluor™ cell viability assay kit and the One-Glo luciferase reagent were equilibrated to room temperature. The GF-AFC (10 μL) substrate was added to assay buffer (10 mL) to form 2× reagent, and the reagent was then diluted to 1× with 10 mL of PBS; the ONE-Glo substrate was added to the ONE-Glo luciferase assay buffer.
5) The ONE-Glo reagent was poured into a reagent reservoir, and then 50 μL was transferred to each well using a multi-channel pipette. The reagent was gently and well mixed, and the mixture was incubated and well mixed at room temperature for 5 min. After the incubation, the luminescence value of each well was read using a luminometer.
The luciferase activity was expressed in terms of […], where RLU is the mean luminescence intensity value of two replicates of each concentration of each compound, and RFU is the mean fluorescence intensity of two replicates of each concentration of each compound.
The calculation formula for induction fold: […]

[1] = compound concentration 0.123 μM

T1 sequence (Q00534 whole entry): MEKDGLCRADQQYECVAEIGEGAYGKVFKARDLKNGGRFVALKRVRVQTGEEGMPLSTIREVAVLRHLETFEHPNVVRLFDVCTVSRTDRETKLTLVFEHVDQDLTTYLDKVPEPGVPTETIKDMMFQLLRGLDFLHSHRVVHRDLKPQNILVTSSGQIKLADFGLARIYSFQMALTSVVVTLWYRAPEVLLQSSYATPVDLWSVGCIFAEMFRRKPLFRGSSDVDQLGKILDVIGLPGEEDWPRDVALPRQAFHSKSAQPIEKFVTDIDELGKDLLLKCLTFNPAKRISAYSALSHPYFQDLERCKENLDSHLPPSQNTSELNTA
T1 sequence (P30281 whole entry partner): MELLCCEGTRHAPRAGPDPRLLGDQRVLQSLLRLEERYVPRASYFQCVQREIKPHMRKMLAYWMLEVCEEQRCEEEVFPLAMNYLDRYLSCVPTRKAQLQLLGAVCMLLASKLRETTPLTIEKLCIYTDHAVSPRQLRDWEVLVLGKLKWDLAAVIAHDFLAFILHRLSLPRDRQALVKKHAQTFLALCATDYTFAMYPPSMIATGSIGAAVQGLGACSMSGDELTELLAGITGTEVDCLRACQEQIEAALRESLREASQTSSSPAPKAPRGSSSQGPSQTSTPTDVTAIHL

| Compound | IC50 (CDK6/cyclin D3) [nM] | IC50 (CDK4/cyclin D1) [nM] | Induction fold (human PXR; [1]) | Induction fold (human PXR; compound concentration 10.0 μM) |
| --- | --- | --- | --- | --- |
| CC1COc2c(-c3nc(N[C@@H]4CCOC[C@H]4O)ncc3Cl)cc(F)c3nc(C(C)(C)O)n1c23 (mixture of isomers) [4f (racemate) in Example 4] | 171 | 15 |  |  |
| C[C@H]1COc2c(-c3nc(N[C@@H]4CCOC[C@H]4O)ncc3Cl)cc(F)c3nc(C(C)(C)O)n1c23 (single isomer, unassigned) [Isomer 1 with a retention time of 2.078 min in Example 4] |  |  | 0.87 | 1.43 |
| Cc1nc2c(F)cc(-c3nc(N[C@@H]4CCN(S(C)(=O)=O)C[C@H]4O)ncc3Cl)c3c2n1[C@@H](C)CO3 (single isomer, unassigned) [Isomer 1 with a retention time of 2.094 min in Example 2] | 39 | 2.5 |  |  |
| Cc1nc2c(F)cc(-c3nc(N[C@@H]4CCOC[C@H]4O)ncc3F)c3c2n1[C@@H](C)CO3 (single isomer, unassigned) [Isomer 1 with a retention time of 2.903 min in Example 1] | > 1000 | 26 |  |  |
| Cc1nc2c(F)cc(-c3nc(N[C@@H]4CCOC[C@H]4O)ncc3Cl)c3c2n1[C@@H](C)CO3 (single isomer, unassigned) [Isomer 1 with a retention time of 3.518 min in Example 3] | 64 | 15 |  |  |
| C[C@@H]1COc2c(-c3nc(N[C@@H]4CCOC[C@H]4O)ncc3Cl)cc(F)c3nc(C(C)(C)O)n1c23 (single isomer, unassigned) [Isomer 2 with a retention time of 1.887 min in Example 4] |  |  | 0.99 | 1.48 |
| Cc1nc2c(F)cc(-c3nc(N[C@@H]4CCN(S(C)(=O)=O)C[C@H]4O)ncc3Cl)c3c2n1[C@@H](C)CO3 (single isomer, unassigned) [Isomer 2 with a retention time of 2.499 min in Example 2] | 9.1 | 1.5 |  |  |
| Cc1nc2c(F)cc(-c3nc(N[C@@H]4CCOC[C@H]4O)ncc3F)c3c2n1[C@@H](C)CO3 (single isomer, unassigned) [Isomer 2 with a retention time of 3.997 min in Example 1] | 301 | 11 |  |  |

Reference: US20240140963A1, “FUSED TRICYCLIC CYCLIN-DEPENDENT KINASE INHIBITOR, AND PREPARATION METHOD THEREFOR AND PHARMACEUTICAL USE THEREOF” (Tuojie Biotech (Shanghai) Co., Ltd., priority 2021, published 2024)
